From patent US12559474B2, “Triazine derivatives having virus replication inhibitory activity and pharmaceutical composition comprising the same” (priority 2021, dated 2026) come the findings set out here.

Where “and” joins values, the source holds several entries; their conditions need not be identical. Equal entries are not always repeated.

The assay addresses SARS-CoV-2 3CL protease (Severe acute respiratory syndrome coronavirus 2, UniProt P0DTD1). Nature of the assay: biochemical. The following applies: IC50.
For the compound `O=c1[nH]cccc1Cn1c(=O)nc(Nc2ccc(-c3cc[nH]n3)cc2)n(Cc2cc(F)c(F)c(F)c2)c1=O` [Compound I-0154], the IC50 (commonly the concentration at which inhibition is half-maximal) was 1300 nM and 1000 to 10000 nM.
`O=c1[nH]cccc1Cn1c(=O)nc(Nc2ccc(OCCO)cc2Cl)n(Cc2cc(F)c(F)c(F)c2)c1=O` [Compound I-0371] yielded an IC50 of under 100 nM.
Under `Cn1cc2cc(Nc3nc(=O)n(Cc4cc5[nH]cnc5cn4)c(=O)n3Cc3cc(F)c(F)cc3F)c(Cl)cc2n1` [II-0256] stands 160 nM; under `Cc1nc2cc(Cl)c(Nc3nc(=O)n(Cc4ccc[nH]c4=O)c(=O)n3Cc3cc(F)c(F)c(F)c3)cc2n1C` [Compound I-0439], under 100 nM.
Under `CN(C)C(=O)Cn1cc2cc(Nc3nc(=O)n(Cc4ncn(C)n4)c(=O)n3Cc3cc(Cl)c(F)cc3F)c(Cl)cc2n1` [II-0276] stands under 100 nM.
For the compound `O=c1[nH]cccc1Cn1c(=O)nc(Nc2cc3cn(CC4(CO)COC4)nc3cc2Cl)n(Cc2cc(F)c(F)c(F)c2)c1=O` [Compound I-0469], the IC50 is under 100 nM.
Under `CN1CC[C@H](n2cc3cc(Nc4nc(=O)n(Cc5ncn(C)n5)c(=O)n4Cc4cc(F)c(F)c(Cl)c4)c(Cl)cc3n2)C1=O` [II-0451] stands under 100 nM; under `CN1Cc2cc(Nc3nc(=O)n(Cc4ccc[nH]c4=O)c(=O)n3Cc3cc(F)c(F)c(F)c3)ccc2C1=O` [Compound I-0438], 740 nM and 100 to 1000 nM.
Under `O=c1[nH]cccc1Cn1c(=O)nc(NC2CCCC2)n(Cc2cc(F)c(F)c(F)c2)c1=O` [Compound I-0204] stands 610 nM and 100 to 1000 nM; under `Cn1cnc(Cn2c(=O)nc(Nc3cc4cn(C)nc4cc3Cl)n(Cc3cccc4cccnc34)c2=O)n1` [II-0224], 1900 nM; under `COc1ccc(Nc2nc(=O)n(Cc3cn(CC(N)=O)cn3)c(=O)n2Cc2cc(F)c(F)c(F)c2)cc1` [Compound I-0416], 3500 nM and 1000 to 10000 nM.
Under `CC(=O)N1CC(n2cc3cc(Nc4nc(=O)n(Cc5ccc[nH]c5=O)c(=O)n4Cc4cc(F)c(F)c(F)c4)c(Cl)cc3n2)C1` [Compound I-0448] stands under 100 nM; under `CN(C)C(=O)Cn1cc2cc(Nc3nc(=O)n(Cc4ncn(C)n4)c(=O)n3Cc3cc(F)c(F)c(Cl)c3)c(Cl)cc2n1` [II-0277], under 100 nM; under `Cn1cnc(Cn2c(=O)nc(Nc3cc4cn(CC(=O)N5CCOCC5)nc4cc3Cl)n(Cc3cc(F)c(F)c(Cl)c3)c2=O)n1` [II-0139], under 100 nM.
Consider `O=c1[nH]cccc1Cn1c(=O)nc(NC23CC(Nc4ncc5ccccc5n4)(C2)C3)n(Cc2cc(F)c(F)c(F)c2)c1=O` [II-0457], for which the IC50 was under 100 nM.
For `CCc1c(F)cc(Cl)cc1Cn1c(Nc2cc3cn(C)nc3cc2Cl)nc(=O)n(Cc2ncn(C)n2)c1=O` [II-0639], the IC50 is under 100 nM.
To `CN(C)C(=O)CCn1cc2cc(Nc3nc(=O)n(Cc4ncn(C)n4)c(=O)n3Cc3cc(F)c(F)c(Cl)c3)c(Cl)cc2n1` [II-0561] belongs under 100 nM; to `Cn1cnc(Cn2c(=O)nc(Nc3cc4c(=O)n(C)cnc4cc3Cl)n(Cc3cc(F)c(F)cc3F)c2=O)n1` [II-0013], under 100 nM; to `CO[C@H]1C[C@H](Nc2nc(=O)n(Cc3ccc[nH]c3=O)c(=O)n2Cc2cc(F)c(F)c(F)c2)C1` [Compound I-0207], 1900 nM and 1000 to 10000 nM.
To `CCNC(=O)Cn1cc2cc(Nc3nc(=O)n(Cc4ncn(C)n4)c(=O)n3Cc3cc(F)c(F)c(Cl)c3)c(Cl)cc2n1` [II-0150] belongs under 100 nM; to `Cn1cc2cc(Nc3nc(=O)n(Cc4cc(F)c[nH]c4=O)c(=O)n3Cc3ccc(F)c(C#N)c3)c(Cl)cc2n1` [Compound I-0270], under 100 nM.
`Cc1cncc(-n2c(=O)nc(Nc3ccc(N=S4(=O)CCCC4)cc3C(F)(F)F)n(Cc3cc(Cl)ccc3C)c2=O)c1` [II-0614] came in with an IC50 of under 100 nM.
Under `CNC(=O)c1cnc2[nH]c(=O)c(Cn3c(=O)nc(Nc4ccc5c(c4)CCO5)n(Cc4cc(F)c(F)c(F)c4)c3=O)cc2c1` [II-0314] stands under 100 nM; under `COCCN(C)C(=O)Cn1cc2cc(Nc3nc(=O)n(Cc4ncn(C)n4)c(=O)n3Cc3cc(Cl)c(F)cc3F)c(Cl)cc2n1` [II-0135], under 100 nM.
Under `O=C1OCCN1c1ccc(Nc2nc(=O)n(Cc3ccc[nH]c3=O)c(=O)n2Cc2cc(F)c(F)c(F)c2)c(Cl)c1` [Compound I-0397] stands 730 nM and 100 to 1000 nM; under `Cn1cc2cc(Nc3nc(=O)n(Cc4cc(C(=O)NC5CC5)c[nH]c4=O)c(=O)n3Cc3cc(F)c(F)c(F)c3)c(Cl)cc2n1` [Compound I-0333], under 100 nM; under `COC(=O)Cn1cnc(Cn2c(=O)nc(Nc3ccc(OC)cc3)n(Cc3cc(F)c(F)c(F)c3)c2=O)c1` [Compound I-0414], 250 nM and 100 to 1000 nM.
Under `COCCn1c(C)nc2cc(Cl)c(Nc3nc(=O)n(Cc4ccc[nH]c4=O)c(=O)n3Cc3cc(F)c(F)c(F)c3)cc21` [Compound I-0443] stands under 100 nM; under `NC(=O)c1cnc2[nH]c(=O)c(Cn3c(=O)nc(Nc4ccc5c(c4)CCO5)n(Cc4cc(F)c(F)c(F)c4)c3=O)cc2c1` [II-0317], under 100 nM.
On to `COc1ccc(Nc2nc(=O)n(Cc3nc(Br)c[nH]c3=O)c(=O)n2Cc2cc(F)c(F)c(F)c2)cc1` [Compound I-0106], for which the IC50 is 1900 nM and 1000 to 10000 nM.
The compound `COc1ccc(Nc2nc(=O)n(Cc3cc(-c4cnn(C)c4)c[nH]c3=O)c(=O)n2Cc2cc(F)c(F)c(F)c2)cc1` [Compound I-0259] yielded an IC50 of under 100 nM.
On to `COc1ccc(Nc2nc(=O)n(Cc3cc(C(N)=O)c[nH]c3=O)c(=O)n2Cc2cc(F)c(F)c(F)c2)cc1` [Compound I-0088], for which the IC50 was under 100 nM.
Under `Cc1cncc(-n2c(=O)nc(Nc3ccc4nnn(C)c4c3)n(Cc3ccc(F)c(C#N)c3)c2=O)c1` [II-0357] stands under 100 nM; under `CNC(=O)c1c[nH]c(=O)c(Cn2c(=O)nc(Nc3cc4c(cc3Cl)OCC4)n(Cc3cc(F)c(F)c(F)c3)c2=O)c1` [Compound I-0478], under 100 nM; under `COc1ccc(Nc2nc(=O)n(Cc3c[nH]c(=S)[nH]c3=O)c(=O)n2Cc2cc(F)c(F)c(F)c2)cc1` [Compound I-0103], under 100 nM.
The compound `Cc1nc2cc(Cl)c(Nc3nc(=O)n(Cc4ccc[nH]c4=O)c(=O)n3Cc3cc(F)c(F)c(F)c3)cc2n1CCCS(C)(=O)=O` [Compound I-0446] gave a half-inhibitory concentration (IC50) of under 100 nM.
Under `CN(C)C(=O)Cn1cc2cc(Nc3nc(=O)n(Cc4ccc[nH]c4=O)c(=O)n3Cc3cc(F)c(F)c(F)c3)c(Cl)cc2n1` [Compound I-0367] stands under 100 nM.
As to `CNc1nc2cc(F)c(Nc3nc(=O)n(-c4cncc(C)c4)c(=O)n3Cc3cc(F)c(F)c(Cl)c3)cc2s1` [II-0293], the IC50 is under 100 nM.
The compound `COc1ccc(Nc2nc(=O)n(Cc3cc(-c4cccnc4)c[nH]c3=O)c(=O)n2Cc2cc(F)c(F)c(F)c2)cc1` [Compound I-0386] yielded an IC50 of under 100 nM.
In turn, `O=c1[nH]cccc1Cn1c(=O)nc(Nc2cc3nccnc3cc2Cl)n(Cc2cc(F)c(F)c(F)c2)c1=O` [Compound I-0098] yielded an IC50 of under 100 nM.
As for `Cn1cnc(Cn2c(=O)nc(Nc3cc4cn(CC(=O)N5CCCCC5)nc4cc3Cl)n(Cc3cc(Cl)c(F)cc3F)c2=O)n1` [II-0134], the IC50 is under 100 nM.
To `Cn1cnc(Cn2c(=O)nc(Nc3cc4cn(C)nc4cc3Cl)n(Cc3cc(Cl)ccc3O)c2=O)n1` [II-0428] belongs 840 nM; to `CN(C(=O)Cn1cc2cc(Nc3nc(=O)n(Cc4ncn(C)n4)c(=O)n3Cc3cc(Cl)c(F)cc3F)c(Cl)cc2n1)C1CC1` [II-0146], under 100 nM.
